The text below walks through data of US20190054070A1, “Methods and Compositions for Regenerative Synaptogenesis” (priority 2017, published 2019).

Experiment [1] concerns cultured hippocampal neurons. The experiment in a line: Dendritic spine morphology of GFP-Actin transfected neurons by confocal microscopy. The format is cell-based, rat. Conditions: for spine head width: untreated 0.753±0.038 μm; for spine length: untreated 1.819±0.064 μm; for spine density: untreated 4.58±0.43. On the procedure:
(§1) Cultures of dissociated hippocampal neurons from embryonic day 18 rats were prepared as previously described (51). Cultured neurons at 10 days in vitro (DIV) were exposed to arginine N-methyltransferase inhibitor-1 (AMI-1; 2.5 or 10 μM, Enzo Life Sciences) in plating media minus additional glutamate for the indicated times.
(§2) To identify the effects of genetic knock-down of CARM1 on dendritic morphology and synaptic clustering of synapsin, NR2B, and PSD-95, hippocampal neurons were first transfected with the construct pCAG-mGFP-Actin [a gift from Ryohei Yasuda (Addgene plasmid #21948)] at 7 DIV with Lipofectamine 2000 (Invitrogen) following the manufacturer's protocol. After a 2-day incubation, neurons were untreated or transduced with rat CARM1- or PRMT1-specific siRNA or scrambled control siRNA lentiviral particles (5×10^3 viral particles/μl, Santa Cruz) at a multiplicity of infection (MOI) of 4 to ensure efficient infection following the manufacturer's protocol, followed by overnight incubation. After a media change with plating media minus glutamate, cells were incubated for an additional 4 days, and then a portion of the cells was either lysed and used for total RNA isolation and RT-qPCR experiments, lysed and used for immunoblot analysis, or fixed for immunocytochemical analysis.
(§3) Cultures neurons were treated as described above and then fixed in 2% paraformaldehyde/4% sucrose/PBS for 10 min at room temperature (RT) followed by methanol for 20 min at −20° C. The fixed neurons were incubated in preblock buffer (20 mM phosphate buffer, pH 7.4, 5% normal goat serum, 0.05% Triton X-100, and 450 mM NaCl) at 4° C. overnight with the following primary antibodies: mouse anti-CARM1 (1:200, Cell Signaling), rabbit anti-CARM1 (1:200, Cell Signaling), rabbit anti-NR2B (1:200, Millipore), mouse anti-NR2B (1:150, Thermo Fisher), mouse anti-PSD-95 (1:100, Cell Signaling), mouse anti-synapsin (1:200, Santa Cruz), or rabbit anti-synapsin (1:250, Millipore), followed by incubation with the appropriate secondary antibodies (Alexa 488-anti-rabbit or 546-anti-mouse; each at 1:1000, Invitrogen) in preblock buffer at RT for 1 hr. After immunostaining, the cells were mounted as previously described (50) and viewed on a Zeiss LSM 710 laser-scanning confocal microscope. Images were acquired under a 63× or 100× oil immersion objective lens and scanned for further analysis.
(§4) Confocal microscope images for each treatment from each of 3 independent sets of experiments were imported into Image J (NIH) software. To determine the proportion of CARM1 signal that co-localizes with PSD-95 or synapsin, Image J (NIH) software was used with Just Another Colocalization (JACoP) plugin set. A Mander's coefficient was calculated and the average value (N=10) was further analyzed. Dendritic spine length (from dendritic shaft to the top of spine head) and dendritic spine width (diameter of the widest part of spine head) were measured and dendritic spine density (number of spines/10 μm of dendrite) was also counted. Dendritic spine shape (stubby, mushroom, or filopodium) was identified as described in previous research (5, 21). After measuring spine length (the distance from the base of the neck to the furthest point on the spine heads) and diameter of spine head and neck, the ratio from each spine was calculated and compared. […] Mushroom spines were judged if the diameter of the head was three times larger than the diameter of their necks. Stubby spines were judged if the diameter of the neck was similar to the total length of the spine.

The test system of experiment [2] is cultured hippocampal neurons. Description: Synaptic clustering of NR2B, PSD-95 and synapsin by immunocytochemistry. In kind it is cell-based, rat. Conditions: 10 μM for 4 days from 10 DIV; compared to untreated cells. How it is done:
as §1, §2, §3, §4

The next experiment deals with HuD-mRNA binding. To be noted: hippocampal neurons in vitro; previous studies (ref. 22); cited from earlier work.
[3] abbreviates: inhibitor treatment for 4 days, compared with untreated.

In experiment [1] (2.5 μM for 4 days from 10 DIV), `O=C(Nc1ccc2c([O-])cc(S(=O)(=O)[O-])cc2c1)Nc1ccc2c([O-])cc(S(=O)(=O)[O-])cc2c1.[Na+].[Na+].[Na+].[Na+]` [AMI-1, 7,7′-(carbonylbis(azanediyl))bis(4-oxidonaphthalene-2-sulfonate), sodium salt] showed a spine head width of 0.899±0.052 μm, a spine length of 1.748±0.093 μm and a spine density of 4.49±0.54 spines per 10 μm dendrite. The molecule also yielded a spine head width in experiment [1] (10 μM for 4 days from 10 DIV, P=0.0085) of 0.982±0.044 μm. Also, the spine length in experiment [1] (10 μM for 4 days from 10 DIV, not statistically significant) is 1.634±0.072 μm. The spine density in experiment [1] (10 μM for 4 days from 10 DIV, no significant difference) stood at 5.54±0.62 spines per 10 μm dendrite. In addition, in experiment [1] (setting [3]), the “proportion of filopodia-type, including thin-type, spines” value is reported as “dramatic decrease” and the “proportion of mushroom-type spines” value is given as “significantly increased”. In experiment [2], the “NR2B number of clusters” value is listed as “increase”, the “NR2B synaptic cluster size” value is reported as “increase”, the “PSD-95 number of clusters” value is given as “increase” and the “PSD-95 synaptic cluster size” value was “increase”. Besides, in experiment [2], the “synapsin synaptic cluster number” value is given as “no difference” and the “synapsin synaptic cluster size” value is “no difference”. Also, the “HuD-mRNA binding and the stability and expression of NTFs, including BDNF” value in the experiment with HuD-mRNA binding is on record as “increased”.
